Data: US11542313B2, “Incretin analogs and uses thereof” (Eli Lilly and Company, priority 2017, dated 2023)
Read-outs that look alike come from different tables or passages of the source. *1 amine or outer side, *2 acyl side, *3 side chain or, on linkers, in order; H or OH if unused. Where a SMILES comes first, the peptide text is derived from it. Side-chain parts run from the residue outwards. [ ]: non-standard residue; d: D form. The star is where a group is joined. C20 diacid = O=C(O)CCCCCCCCCCCCCCCCCCC(=O)*; γGlu = O=C(O)[C@H](CCC(=O)[*:2])N[*:1]; αMeL = CC(C)C[C@](C)(N)C(=O)O; AEEA = NCCOCCOCC(=O)O; Aib = CC(C)(N)C(=O)O

Legend:
GLP-1 receptor (GLP-1R) = biological target: T1, GLP-1 receptor (GLP-1R) (Homo sapiens, UniProt P43220); assay: Radioligand competition binding (SPA), human GLP-1R membranes
T1 construct: expressed in transfected cells; host or cells: HEK293 (membranes)
T1 sequence (P43220 24-463): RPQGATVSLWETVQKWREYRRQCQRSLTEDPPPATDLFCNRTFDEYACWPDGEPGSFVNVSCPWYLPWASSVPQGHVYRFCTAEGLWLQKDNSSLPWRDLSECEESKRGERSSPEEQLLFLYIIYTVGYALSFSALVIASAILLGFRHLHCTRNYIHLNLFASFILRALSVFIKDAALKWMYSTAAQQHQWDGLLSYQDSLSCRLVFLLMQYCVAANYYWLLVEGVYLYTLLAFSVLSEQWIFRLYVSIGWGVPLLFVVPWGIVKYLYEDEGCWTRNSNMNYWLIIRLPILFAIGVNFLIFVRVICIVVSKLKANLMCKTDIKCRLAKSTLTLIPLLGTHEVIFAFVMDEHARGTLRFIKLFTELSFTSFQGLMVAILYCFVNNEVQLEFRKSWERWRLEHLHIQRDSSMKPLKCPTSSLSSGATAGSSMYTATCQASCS
From the text: (§1) Radioligand competition binding assays are run to determine the equilibrium dissociation constant for exemplary compounds and comparator molecules.
(§2) Competition curves are plotted as the percent specific inhibition (y-axis) versus log concentration of compound (x-axis) and analyzed using a four parameter nonlinear regression fit with variable slope (ABase or Genedata).

hGIPR = biological target: T2, hGIPR (Homo sapiens, UniProt P48546); assay: cAMP assay in HEK293 cells expressing hGIPR, 0.1% casein; assay type: cell-based; conditions: in the presence of 0.1% casein; read-out: cAMP EC50, GIPR
T2 construct: expressed in transfected cells; host or cells: HEK293
T2 sequence (P48546 22-466): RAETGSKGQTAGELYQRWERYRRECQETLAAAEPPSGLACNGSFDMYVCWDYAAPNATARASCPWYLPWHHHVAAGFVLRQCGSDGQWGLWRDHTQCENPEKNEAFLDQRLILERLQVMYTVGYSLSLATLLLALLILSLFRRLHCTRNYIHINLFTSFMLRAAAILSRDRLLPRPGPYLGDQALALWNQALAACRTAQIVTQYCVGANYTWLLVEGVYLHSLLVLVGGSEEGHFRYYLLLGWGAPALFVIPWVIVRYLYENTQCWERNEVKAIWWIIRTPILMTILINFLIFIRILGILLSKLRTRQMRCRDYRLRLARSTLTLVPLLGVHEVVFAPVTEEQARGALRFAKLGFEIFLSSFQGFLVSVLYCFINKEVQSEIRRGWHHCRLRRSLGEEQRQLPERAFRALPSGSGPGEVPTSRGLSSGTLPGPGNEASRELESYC

hGLP-1R = hGLP-1R (Homo sapiens, UniProt P43220); assay: cAMP assay in HEK293 cells expressing hGLP-1R, 0.1% casein; assay type: cell-based; conditions: in the presence of 0.1% casein; read-out: cAMP EC50, GLP-1R
hGLP-1R, sequence (P43220 24-463): as the sequence (P43220 24-463) above

[1] = biological target: T3, human GIP receptor (GIPR) (Homo sapiens, UniProt P48546); assay: Radioligand competition binding (SPA), human GIPR membranes
T3 construct: expressed in transfected cells; host or cells: HEK293 (membranes)
T3 sequence (P48546 22-466): T2 sequence (P48546 22-466)
From the text: as §1, §2

hGcgR = biological target: T4, hGcgR (Homo sapiens, UniProt P47871); assay: cAMP assay in HEK293 cells expressing hGcgR, 0.1% casein; assay type: cell-based; conditions: in the presence of 0.1% casein; read-out: cAMP EC50, GcGR
T4 construct: expressed in transfected cells; host or cells: HEK293
T4 sequence (P47871 26-477): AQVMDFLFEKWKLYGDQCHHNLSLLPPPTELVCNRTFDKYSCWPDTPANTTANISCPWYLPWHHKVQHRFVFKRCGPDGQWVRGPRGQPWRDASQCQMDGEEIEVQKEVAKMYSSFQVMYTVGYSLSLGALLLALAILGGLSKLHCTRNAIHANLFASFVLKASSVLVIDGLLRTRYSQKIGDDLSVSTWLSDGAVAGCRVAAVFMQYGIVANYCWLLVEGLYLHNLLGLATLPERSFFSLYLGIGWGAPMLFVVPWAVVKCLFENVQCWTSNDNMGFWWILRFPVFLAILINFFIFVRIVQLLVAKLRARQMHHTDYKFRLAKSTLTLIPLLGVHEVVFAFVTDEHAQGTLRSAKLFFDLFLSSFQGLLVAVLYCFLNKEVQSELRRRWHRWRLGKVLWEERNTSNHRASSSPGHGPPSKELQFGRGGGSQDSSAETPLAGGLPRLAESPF

[2] = biological target: T5, human glucagon receptor (GcgR) (Homo sapiens, UniProt P47871); assay: Radioligand competition binding (SPA), human GcgR membranes
T5 construct: expressed in transfected cells; host or cells: HEK293 (membranes)
T5 sequence (P47871 26-477): as above
From the text: as §1, §2

[3] = Pharmacokinetics in male Sprague Dawley rats; conditions: for CL/F / Tmax / half-life: male, Sprague-Dawley, rat, plasma, sc, 100 nmol/kg; for AUCINF_D_obs / Cmax/D: single subcutaneous 100 nMol/kg, male Sprague Dawley rats, n = 3
Experimental: The pharmacokinetics of the exemplary analogs are evaluated following a single subcutaneous administration of 100 nM/kg to male Sprague Dawley rats. Blood samples are collected over 120 hours, and resulting individual plasma concentrations are used to calculate pharmacokinetic parameters. Peptide plasma (K3 EDTA) concentrations are determined using a qualified LC/MS method that measured the intact mass of the analog. Each peptide and an analog as an internal standard are extracted from 100% specie specified plasma using methanol with 0.1% formic acid. A Thermo Q-Exactive, High Resolution Instrument, and a Thermo Easy Spray PepMap are combined for LC/MS detection.

[4] = HEK293 membranes, SPA, bacitracin present, mean, read-out: Ki, GLP-1R
[5] = HEK293 membranes, SPA, bacitracin present, mean, read-out: Ki, GIPR
[6] = HEK293 membranes, SPA, bacitracin present, mean, read-out: Ki, GcgR

Row | Structure (SMILES) | Ki (GLP-1 receptor (GLP-1R); [4]) [nM] | EC50 (hGIPR) [nM] | EC50 (hGLP-1R) [nM] | Ki [1, 5] [nM] | EC50 (hGcgR) [nM] | Ki [2, 6] [nM] | Ki (GLP-1 receptor (GLP-1R)) [nM] | CL/F [3] [mL/h/kg] | Tmax [3] [h] | half-life [3] [min] | AUCINF_D_obs [3] [hr*kg*nmol/L/nmol] | Cmax/D [3] [kg*nmol/L/nmol] | Ki [1] [nM] | Ki [2] [nM]
1 | CC[C@H](C)[C@H](NC(=O)[C@H](Cc1ccccc1)NC(=O)[C@H](C)NC(=O)[C@H](Cc1c[nH]cn1)NC(=O)[C@H](CCC(N)=O)NC(=O)[C@H](C)NC(=O)[C@H](CCCCNC(=O)COCCOCCNC(=O)CC[C@H](NC(=O)CCCCCCCCCCCCCCCCCCC(=O)O)C(=O)O)NC(=O)[C@H](CCCCN)NC(=O)[C@H](CC(=O)O)NC(=O)[C@H](CC(C)C)NC(=O)[C@](C)(CC(C)C)NC(=O)[C@@H](NC(=O)[C@H](CO)NC(=O)[C@H](Cc1ccc(O)cc1)NC(=O)[C@H](CC(=O)O)NC(=O)[C@H](CO)NC(=O)[C@@H](NC(=O)[C@H](Cc1ccccc1)NC(=O)[C@@H](NC(=O)CNC(=O)[C@H](CCC(N)=O)NC(=O)C(C)(C)NC(=O)[C@@H](N)Cc1ccc(O)cc1)[C@@H](C)O)[C@@H](C)O)[C@@H](C)CC)C(=O)N[C@@H](CCC(=O)O)C(=O)N[C@@H](Cc1ccc(O)cc1)C(=O)N[C@@H](CC(C)C)C(=O)N[C@@H](CC(C)C)C(=O)N[C@@H](C)C(=O)NC(C)(C)C(=O)NCC(=O)N1CCC[C@H]1C(=O)N[C@@H](CO)C(=O)N[C@@H](CO)C(=O)NCC(=O)N[C@@H](C)C(=O)N1CCC[C@H]1C(=O)N1CCC[C@H]1C(=O)N1CCC[C@H]1C(=O)N[C@@H](CO)C(N)=O [Example 2] (H-Y[Aib]QGTFTSDYSI[αMeL]LDKK([AEEA-γGlu-C20 diacid])AQHAFIEYLLA[Aib]GPSSGAPPPS-NH2) | 4.5 | 0.0474 | 0.207 | 0.0665 | 0.0553 | 3.71 | – | – | – | – | – | – | – | –
2 | CC[C@H](C)[C@H](NC(=O)[C@H](Cc1ccccc1)NC(=O)[C@H](C)NC(=O)[C@H](CCC(N)=O)NC(=O)[C@H](C)NC(=O)[C@H](C)NC(=O)[C@H](CCCCNC(=O)COCCOCCNC(=O)COCCOCCNC(=O)CC[C@H](NC(=O)CCCCCCCCCCCCCCCCCCC(=O)O)C(=O)O)NC(=O)[C@H](CCCCN)NC(=O)[C@H](CC(=O)O)NC(=O)[C@H](CC(C)C)NC(=O)[C@](C)(CC(C)C)NC(=O)[C@@H](NC(=O)[C@H](CO)NC(=O)[C@H](Cc1ccc(O)cc1)NC(=O)[C@H](CC(=O)O)NC(=O)[C@H](CO)NC(=O)[C@@H](NC(=O)[C@H](Cc1ccccc1)NC(=O)[C@@H](NC(=O)CNC(=O)[C@H](CCC(N)=O)NC(=O)C(C)(C)NC(=O)[C@@H](N)Cc1ccc(O)cc1)[C@@H](C)O)[C@@H](C)O)[C@@H](C)CC)C(=O)N[C@@H](CCC(=O)O)C(=O)N[C@@H](Cc1ccc(O)cc1)C(=O)N[C@@H](CC(C)C)C(=O)N[C@@H](CC(C)C)C(=O)N[C@@H](CCC(=O)O)C(=O)NC(C)(C)C(=O)NCC(=O)N1CCC[C@H]1C(=O)N[C@@H](CO)C(=O)N[C@@H](CO)C(=O)NCC(=O)N[C@@H](C)C(=O)N1CCC[C@H]1C(=O)N1CCC[C@H]1C(=O)N1CCC[C@H]1C(=O)N[C@@H](CO)C(N)=O [Example 5] (H-Y[Aib]QGTFTSDYSI[αMeL]LDKK([AEEA-AEEA-γGlu-C20 diacid])AAQAFIEYLLE[Aib]GPSSGAPPPS-NH2) | 36.7 | 0.0757 | 0.147 | 0.179 | 0.0226 | 0.422 | – | – | – | – | – | – | – | –
3 | CC[C@H](C)[C@H](NC(=O)[C@H](Cc1ccccc1)NC(=O)[C@H](C)NC(=O)[C@](C)(CCCCN)NC(=O)[C@H](CCC(N)=O)NC(=O)[C@H](C)NC(=O)[C@H](CCCCNC(=O)COCCOCCNC(=O)COCCOCCNC(=O)CC[C@H](NC(=O)CCCCCCCCCCCCCCCCCCC(=O)O)C(=O)O)NC(=O)[C@H](CCCCN)NC(=O)[C@H](CC(=O)O)NC(=O)[C@H](CC(C)C)NC(=O)[C@H](CC(C)C)NC(=O)[C@@H](NC(=O)[C@H](CO)NC(=O)[C@H](Cc1ccc(O)cc1)NC(=O)[C@H](CC(=O)O)NC(=O)[C@H](CO)NC(=O)[C@@H](NC(=O)[C@H](Cc1ccccc1)NC(=O)[C@@H](NC(=O)CNC(=O)[C@H](CCC(N)=O)NC(=O)C(C)(C)NC(=O)[C@@H](N)Cc1ccc(O)cc1)[C@@H](C)O)[C@@H](C)O)[C@@H](C)CC)C(=O)N[C@@H](CCC(=O)O)C(=O)N[C@@H](Cc1ccc(O)cc1)C(=O)N[C@@H](CC(C)C)C(=O)N[C@@H](CC(C)C)C(=O)N[C@@H](CCC(=O)O)C(=O)NCC(=O)NCC(=O)N1CCC[C@H]1C(=O)N[C@@H](CO)C(=O)N[C@@H](CO)C(=O)NCC(=O)N[C@@H](C)C(=O)N1CCC[C@H]1C(=O)N1CCC[C@H]1C(=O)N1CCC[C@H]1C(=O)N[C@@H](CO)C(N)=O [Example 8] | 29.4 | 0.114 | 0.117 | 0.0958 | 0.12 | 30.4 | – | – | – | – | – | – | – | –
4 | CC[C@H](C)[C@H](NC(=O)[C@H](Cc1ccccc1)NC(=O)[C@H](C)NC(=O)C(C)(C)NC(=O)[C@H](CCC(N)=O)NC(=O)[C@H](C)NC(=O)[C@H](CCCCNC(=O)COCCOCCNC(=O)COCCOCCNC(=O)CC[C@H](NC(=O)CCCCCCCCCCCCCCCCCCC(=O)O)C(=O)O)NC(=O)[C@H](CCCCN)NC(=O)[C@H](CC(=O)O)NC(=O)[C@H](CC(C)C)NC(=O)[C@H](CC(C)C)NC(=O)[C@@H](NC(=O)[C@H](CO)NC(=O)[C@H](Cc1ccc(O)cc1)NC(=O)[C@H](CC(=O)O)NC(=O)[C@H](CO)NC(=O)[C@@H](NC(=O)[C@H](Cc1ccccc1)NC(=O)[C@@H](NC(=O)CNC(=O)[C@H](CCC(N)=O)NC(=O)C(C)(C)NC(=O)[C@@H](N)Cc1ccc(O)cc1)[C@@H](C)O)[C@@H](C)O)[C@@H](C)CC)C(=O)N[C@@H](CCC(=O)O)C(=O)N[C@@H](Cc1ccc(O)cc1)C(=O)N[C@@H](CC(C)C)C(=O)N[C@@H](CC(C)C)C(=O)N[C@@H](CCC(=O)O)C(=O)NCC(=O)NCC(=O)N1CCC[C@H]1C(=O)N[C@@H](CO)C(=O)N[C@@H](CO)C(=O)NCC(=O)N[C@@H](C)C(=O)N1CCC[C@H]1C(=O)N1CCC[C@H]1C(=O)N1CCC[C@H]1C(=O)N[C@@H](CO)C(N)=O [Example 16] | – | – | – | – | – | – | 16.1 | 3.6 | 20 | 1750 | 274.9 | 3.8 | 0.106 | 11.5
5 | CC[C@H](C)[C@H](NC(=O)[C@H](Cc1ccccc1)NC(=O)[C@H](C)NC(=O)C(C)(C)NC(=O)[C@H](CCC(N)=O)NC(=O)[C@H](C)NC(=O)[C@H](CCCCNC(=O)COCCOCCNC(=O)CC[C@H](NC(=O)CCCCCCCCCCCCCCCCCCC(=O)O)C(=O)O)NC(=O)[C@H](CCCCN)NC(=O)[C@H](CC(=O)O)NC(=O)[C@H](CC(C)C)NC(=O)[C@H](CC(C)C)NC(=O)[C@@H](NC(=O)[C@H](CO)NC(=O)[C@H](Cc1ccc(O)cc1)NC(=O)[C@H](CC(=O)O)NC(=O)[C@H](CO)NC(=O)[C@@H](NC(=O)[C@H](Cc1ccccc1)NC(=O)[C@@H](NC(=O)CNC(=O)[C@H](CCC(N)=O)NC(=O)C(C)(C)NC(=O)[C@@H](N)Cc1ccc(O)cc1)[C@@H](C)O)[C@@H](C)O)[C@@H](C)CC)C(=O)N[C@@H](CCC(=O)O)C(=O)N[C@@H](Cc1ccc(O)cc1)C(=O)N[C@@H](CC(C)C)C(=O)N[C@@H](CC(C)C)C(=O)N[C@@H](CCC(=O)O)C(=O)NCC(=O)NCC(=O)N1CCC[C@H]1C(=O)N[C@@H](CO)C(=O)N[C@@H](CO)C(=O)NCC(=O)N[C@@H](C)C(=O)N1CCC[C@H]1C(=O)N1CCC[C@H]1C(=O)N1CCC[C@H]1C(=O)N[C@@H](CO)C(N)=O [Example 18] | – | – | – | – | – | – | 8.06 | 3.6 | 24 | 2090 | 284.3 | 5.0 | 0.0835 | 5.71
